Values quoted from earlier work, collected in publication PMC9307173, “OX2R-selective orexin agonism is sufficient to ameliorate cataplexy and sleep/wake fragmentation without inducing drug-seeking behavior in mouse model of narcolepsy” (PLoS ONE, 2022).
“Also recorded” adds a separate entry of the source.

What was measured:
[1] = tested on: orexin knockout and orexin neuron-ablated mice; design: method as in PMID 28507129
addiction-like behaviors = conditions: OX1R-selective antagonist
Excerpt: Orexin also activates the reward system. Orexin neurons in the LH project to the dopaminergic reward system in the ventral tegmental area (VTA), and promote the dopamine release in the nucleus accumbens and the prefrontal cortex, potentially inducing addiction-like behaviors and reinforcing effects. Orexin-mediated neural signaling also contributes to the development of addiction to drugs of abuse such as cocaine, morphine and nicotine. Anatomically, both OX1R and OX2R are present in VTA, with dopaminergic neurons predominantly expressing OX1R ...

COc1ccc(-c2cccc(C(=O)N(C)C)c2)cc1S(=O)(=O)Nc1cccc(NCCNC(=O)c2ccccc2N(C)C)c1 [YNT-185]
wakefulness promotion (in words) ([1]; mouse models of narcolepsy): promotes wakefulness | cataplexy-like episodes (in words) ([1]; mouse models of narcolepsy / OXKO mice): effectively suppressed cataplexy-like episodes; also recorded: ameliorates cataplexy-like episodes | wake fragmentation (in words) ([1]; narcoleptic model mice / OXKO mice): did not appreciably ameliorate the wake fragmentation; also recorded: did not sufficiently suppress the active-phase fragmentation of wakefulness

Cc1nc2ccc(NC(=O)Nc3ccnc4cccnc34)cc2o1 [SB334867]
addiction-like behaviors induced by drugs of abuse or OXA (in words) (addiction-like behaviors): inhibited
